How the values were obtained:
[1] = biological target: Mast/stem cell growth factor receptor Kit (Homo sapiens, UniProt P10721)
[2] = biological target: Phosphatidylinositol 4-phosphate 5-kinase type-1 alpha (Homo sapiens, UniProt Q99755)
[3] = biological target: Mitogen-activated protein kinase kinase kinase kinase 1 (Homo sapiens, UniProt Q92918)
[4] = biological target: Serine/threonine-protein kinase 33 (Homo sapiens, UniProt Q9BYT3)
[5] = biological target: Tyrosine-protein kinase ABL1 (Homo sapiens, UniProt P00519, M351T)
[6] = biological target: T1, Membrane-associated tyrosine- and threonine-specific cdc2-inhibitory kinase (Homo sapiens, UniProt Q99640)
T1 sequence (Q99640 whole entry): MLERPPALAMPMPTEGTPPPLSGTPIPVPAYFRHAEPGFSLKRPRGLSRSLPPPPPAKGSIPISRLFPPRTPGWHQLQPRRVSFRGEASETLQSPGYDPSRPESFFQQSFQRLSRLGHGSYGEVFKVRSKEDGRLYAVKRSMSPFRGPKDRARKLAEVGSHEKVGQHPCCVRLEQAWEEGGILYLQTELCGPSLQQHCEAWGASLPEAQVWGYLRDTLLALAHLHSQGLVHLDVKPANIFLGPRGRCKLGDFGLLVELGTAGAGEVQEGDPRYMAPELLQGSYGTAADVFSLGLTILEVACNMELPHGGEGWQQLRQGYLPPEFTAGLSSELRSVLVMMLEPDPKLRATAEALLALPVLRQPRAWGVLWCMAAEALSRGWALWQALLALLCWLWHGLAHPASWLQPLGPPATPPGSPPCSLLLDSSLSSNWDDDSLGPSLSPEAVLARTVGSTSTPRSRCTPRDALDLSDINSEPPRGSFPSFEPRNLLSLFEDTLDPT

[7] = biological target: Ribosomal protein S6 kinase alpha-4 (Homo sapiens, UniProt O75676)
[8] = biological target: T2, Calcium/calmodulin-dependent protein kinase type IV (Homo sapiens, UniProt Q16566)
T2 sequence (Q16566 whole entry): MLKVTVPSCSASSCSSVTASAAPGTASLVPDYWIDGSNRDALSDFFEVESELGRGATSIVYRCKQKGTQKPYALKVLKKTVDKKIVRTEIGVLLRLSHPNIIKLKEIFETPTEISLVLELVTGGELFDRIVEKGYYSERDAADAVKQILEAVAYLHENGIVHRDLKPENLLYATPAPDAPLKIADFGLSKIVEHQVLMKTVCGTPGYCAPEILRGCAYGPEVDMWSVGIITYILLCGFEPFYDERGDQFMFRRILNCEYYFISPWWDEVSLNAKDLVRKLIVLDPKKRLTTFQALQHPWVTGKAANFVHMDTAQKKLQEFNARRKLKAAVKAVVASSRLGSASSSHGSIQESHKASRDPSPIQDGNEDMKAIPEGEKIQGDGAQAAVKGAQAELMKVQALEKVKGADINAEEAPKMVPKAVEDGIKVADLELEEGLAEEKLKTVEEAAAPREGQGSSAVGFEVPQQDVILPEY

[9] = biological target: Serine/threonine-protein kinase 32C (Homo sapiens, UniProt Q86UX6)
Aurora kinase C = biological target: T3, Aurora kinase C (Homo sapiens, UniProt Q9UQB9)
T3 sequence (Q9UQB9 whole entry): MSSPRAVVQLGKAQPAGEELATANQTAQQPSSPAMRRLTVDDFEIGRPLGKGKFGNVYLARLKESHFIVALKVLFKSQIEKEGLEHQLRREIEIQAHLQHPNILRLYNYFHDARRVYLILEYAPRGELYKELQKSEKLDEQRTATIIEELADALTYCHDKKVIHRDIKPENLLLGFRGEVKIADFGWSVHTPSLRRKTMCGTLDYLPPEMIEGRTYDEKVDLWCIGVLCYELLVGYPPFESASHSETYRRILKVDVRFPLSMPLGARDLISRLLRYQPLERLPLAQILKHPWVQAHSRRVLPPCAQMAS

[10] = biological target: T4, Serine/threonine-protein kinase DCLK3 (Homo sapiens, UniProt Q9C098)
T4 sequence (Q9C098 whole entry): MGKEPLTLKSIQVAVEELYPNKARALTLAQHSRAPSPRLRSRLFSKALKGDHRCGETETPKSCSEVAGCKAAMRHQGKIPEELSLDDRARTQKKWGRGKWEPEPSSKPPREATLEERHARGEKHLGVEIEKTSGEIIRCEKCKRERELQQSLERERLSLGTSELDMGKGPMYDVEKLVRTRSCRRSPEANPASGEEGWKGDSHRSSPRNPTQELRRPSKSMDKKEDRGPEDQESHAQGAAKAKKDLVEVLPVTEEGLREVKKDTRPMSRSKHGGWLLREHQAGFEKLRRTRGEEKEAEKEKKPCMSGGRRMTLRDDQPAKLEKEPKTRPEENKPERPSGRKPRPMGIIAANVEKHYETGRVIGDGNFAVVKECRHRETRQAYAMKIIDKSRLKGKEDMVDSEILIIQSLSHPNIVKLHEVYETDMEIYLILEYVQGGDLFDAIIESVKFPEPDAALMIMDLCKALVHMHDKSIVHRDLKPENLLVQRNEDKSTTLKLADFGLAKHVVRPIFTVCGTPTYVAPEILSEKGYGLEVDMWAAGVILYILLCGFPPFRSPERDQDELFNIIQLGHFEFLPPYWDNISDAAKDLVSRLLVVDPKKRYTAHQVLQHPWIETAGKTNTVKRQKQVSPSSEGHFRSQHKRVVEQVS

[11] = biological target: Serine/threonine-protein kinase B-raf (Homo sapiens, UniProt P15056)

Row | SMILES | Kd [1] [µM] | Kd [2] [µM] | Kd [3] [µM] | Kd [4] [µM] | Kd [5] [µM] | Kd [6] [µM] | Kd [7] [µM] | Kd [8] [µM] | Kd [9] [µM] | Kd (Aurora kinase C) [µM] | Kd [10] [µM] | Kd [11] [µM]
1 | COCC(=O)NC/C=C/c1ccc2ncnc(Nc3ccc(Oc4ccc(C)nc4)c(C)c3)c2c1 [CP-724714] | > 10 | > 10 | > 10 | > 10 | > 10 | > 10 | > 10 | > 10 | > 10 | > 10 | > 10 | –
2 | Nc1nc(Nc2ccc(S(N)(=O)=O)cc2)nn1C(=O)c1c(F)cccc1F [JNJ-7706621] | – | 9.2 | 0.12 | > 10 | – | > 10 | 3 | > 10 | > 10 | 0.086 | – | > 10
3 | CCOc1cc2ncc(C#N)c(Nc3ccc(F)c(Cl)c3)c2cc1NC(=O)/C=C/CN(C)C [PELITINIB] | > 10 | > 10 | – | – | – | 2.9 | > 10 | > 10 | > 10 | > 10 | 4.9 | > 10
4 | Oc1ccc(-c2nc(-c3ccncc3)c(-c3ccc(F)cc3)[nH]2)cc1 [SB-202190] | > 10 | > 10 | > 10 | > 10 | > 10 | > 10 | > 10 | > 10 | > 10 | > 10 | > 10 | 4.8
5 | NC(=O)c1ccc(-c2nc(-c3ccc4c(c3)OCO4)c(-c3ccccn3)[nH]2)cc1 [SB-431542] | > 10 | > 10 | > 10 | > 10 | > 10 | > 10 | > 10 | > 10 | > 10 | > 10 | > 10 | –

From ChEMBL document CHEMBL1150977, “A quantitative analysis of kinase inhibitor selectivity” (Nat Biotechnol, 2008)
